# Assay results: ChEMBL document CHEMBL5528008, “Design and synthesis of the first PARP-1 and proteasome dual inhibitors to treat breast cancer” (Eur J Med Chem, 2024)
# Molecular target: Poly [ADP-ribose] polymerase 1 (Homo sapiens, UniProt P09874)
# Experiment: Inhibition of PARP-1 (unknown origin) using Femto-ECL as substrate preincubated for 2.7 hrs followed by substrate addition by chemiluminescence assay
# Conditions: not given
# Sequence of Poly [ADP-ribose] polymerase 1 (P09874 whole entry): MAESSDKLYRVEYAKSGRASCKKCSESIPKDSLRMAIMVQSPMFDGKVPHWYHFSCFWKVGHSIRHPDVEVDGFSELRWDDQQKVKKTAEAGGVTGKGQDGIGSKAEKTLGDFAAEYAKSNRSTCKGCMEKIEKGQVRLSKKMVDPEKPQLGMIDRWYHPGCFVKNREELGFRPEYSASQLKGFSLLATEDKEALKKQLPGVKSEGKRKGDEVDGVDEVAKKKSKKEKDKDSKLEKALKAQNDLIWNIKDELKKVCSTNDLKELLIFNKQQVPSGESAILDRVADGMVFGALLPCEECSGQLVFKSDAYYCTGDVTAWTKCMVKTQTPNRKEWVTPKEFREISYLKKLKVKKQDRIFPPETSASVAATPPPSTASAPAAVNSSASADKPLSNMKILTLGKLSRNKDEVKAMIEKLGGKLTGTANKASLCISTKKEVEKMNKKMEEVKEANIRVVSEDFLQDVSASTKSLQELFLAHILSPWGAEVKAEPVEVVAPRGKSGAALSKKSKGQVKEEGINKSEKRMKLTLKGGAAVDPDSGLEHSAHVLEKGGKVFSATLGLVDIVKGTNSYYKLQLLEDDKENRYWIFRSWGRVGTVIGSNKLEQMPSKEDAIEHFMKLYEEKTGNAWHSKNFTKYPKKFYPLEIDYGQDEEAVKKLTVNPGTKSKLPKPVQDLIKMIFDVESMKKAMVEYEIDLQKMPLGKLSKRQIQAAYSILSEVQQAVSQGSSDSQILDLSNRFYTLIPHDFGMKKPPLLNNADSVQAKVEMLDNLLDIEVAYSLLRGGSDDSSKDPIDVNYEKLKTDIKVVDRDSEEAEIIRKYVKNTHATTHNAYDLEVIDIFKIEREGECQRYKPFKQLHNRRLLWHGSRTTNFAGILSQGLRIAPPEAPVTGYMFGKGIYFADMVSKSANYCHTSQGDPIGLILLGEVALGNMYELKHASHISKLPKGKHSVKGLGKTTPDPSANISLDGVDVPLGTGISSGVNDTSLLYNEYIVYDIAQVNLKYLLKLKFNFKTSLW
row,IC50 [nM],SMILES
1,28,CC(C)C[C@H](NC(=O)[C@H](Cc1c[nH]c2ccccc12)NC(=O)c1cc(Cc2n[nH]c(=O)c3ccccc23)ccc1F)B1O[C@@H]2C[C@@H]3C[C@@H](C3(C)C)[C@]2(C)O1
2,116,CC(C)C[C@H](NC(=O)[C@H](Cc1ccc(O)cc1)NC(=O)c1cc(Cc2n[nH]c(=O)c3ccccc23)ccc1F)B1O[C@@H]2C[C@@H]3C[C@@H](C3(C)C)[C@]2(C)O1
3,> 1000,CC(C)C[C@H](NC(=O)[C@H](Cc1ccccc1)NC(=O)c1cc(COc2ccccc2C(N)=O)ccc1F)B1O[C@@H]2C[C@@H]3C[C@@H](C3(C)C)[C@]2(C)O1

# Second part, the molecule before the results:
row,SMILES,IC50 [nM]
1,CC(C)C[C@H](NC(=O)[C@@H](NC(=O)c1cc(Cc2n[nH]c(=O)c3ccccc23)ccc1F)C(C)(C)C)B1O[C@@H]2C[C@@H]3C[C@@H](C3(C)C)[C@]2(C)O1,171
2,COC[C@H](NC(=O)c1cc(Cc2n[nH]c(=O)c3ccccc23)ccc1F)C(=O)N[C@@H](CC(C)C)B1O[C@@H]2C[C@@H]3C[C@@H](C3(C)C)[C@]2(C)O1,247
3,CC(C)C[C@H](NC(=O)CNC(=O)c1cc(Cc2n[nH]c(=O)c3ccccc23)ccc1F)B1O[C@@H]2C[C@@H]3C[C@@H](C3(C)C)[C@]2(C)O1,2.1
4,COC[C@H](NC(=O)c1cc(Cc2n[nH]c(=O)c(C)c2C)ccc1F)C(=O)N[C@@H](CC(C)C)B1O[C@@H]2C[C@@H]3C[C@@H](C3(C)C)[C@]2(C)O1,> 1000
5,CCC[C@H](NC(=O)c1cc(Cc2n[nH]c(=O)c3ccccc23)ccc1F)C(=O)N[C@@H](CC(C)C)B1O[C@@H]2C[C@@H]3C[C@@H](C3(C)C)[C@]2(C)O1,203

# Molecular target: 20S proteasome
# Experiment: Inhibition of 20S proteasome (unknown origin) using […] as substrate
# Format: protein-complex assay, Homo sapiens
# Conditions: not given
row,IC50 [nM],SMILES
1,42.6,CC(C)C[C@H](NC(=O)[C@H](Cc1c[nH]c2ccccc12)NC(=O)c1cc(Cc2n[nH]c(=O)c3ccccc23)ccc1F)B1O[C@@H]2C[C@@H]3C[C@@H](C3(C)C)[C@]2(C)O1
2,47.6,CC(C)C[C@H](NC(=O)[C@H](Cc1ccc(O)cc1)NC(=O)c1cc(Cc2n[nH]c(=O)c3ccccc23)ccc1F)B1O[C@@H]2C[C@@H]3C[C@@H](C3(C)C)[C@]2(C)O1

# The next lines start with the molecule.
row,SMILES,IC50 [nM]
1,CC(C)C[C@H](NC(=O)[C@H](Cc1c[nH]c2ccccc12)NC(=O)c1cc(Cc2n[nH]c(=O)c3ccccc23)ccc1F)C(=O)[C@@]1(C)CO1,1060
2,CC(C)C[C@H](NC(=O)[C@@H](NC(=O)c1cc(Cc2n[nH]c(=O)c3ccccc23)ccc1F)C(C)(C)C)B1O[C@@H]2C[C@@H]3C[C@@H](C3(C)C)[C@]2(C)O1,65.6
3,COC[C@H](NC(=O)c1cc(Cc2n[nH]c(=O)c3ccccc23)ccc1F)C(=O)N[C@@H](CC(C)C)B1O[C@@H]2C[C@@H]3C[C@@H](C3(C)C)[C@]2(C)O1,21.4
4,CC(C)C[C@H](NC(=O)CNC(=O)c1cc(Cc2n[nH]c(=O)c3ccccc23)ccc1F)B1O[C@@H]2C[C@@H]3C[C@@H](C3(C)C)[C@]2(C)O1,157
5,CC(C)C[C@H](NC(=O)CNC(=O)c1cc(Cc2n[nH]c(=O)c3ccccc23)ccc1F)C(=O)[C@@]1(C)CO1,> 10000
6,CCC[C@H](NC(=O)c1cc(Cc2n[nH]c(=O)c3ccccc23)ccc1F)C(=O)N[C@@H](CC(C)C)B1O[C@@H]2C[C@@H]3C[C@@H](C3(C)C)[C@]2(C)O1,103
7,CC(C)C[C@H](NC(=O)[C@H](Cc1ccccc1)NC(=O)c1cc(Cc2n[nH]c(=O)c3ccccc23)ccc1F)C(=O)[C@@]1(C)CO1,1420

# System: BT-549
# Experiment: Cytotoxicity against human BT-549 cells assessed as inhibition of cell growth incubated for 72 hrs by MTT assay
# Format: functional, cell-based
# Conditions: BT-549, 72 h
row,SMILES,IC50 [nM]
1,CC(C)C[C@H](NC(=O)[C@H](Cc1c[nH]c2ccccc12)NC(=O)c1cc(Cc2n[nH]c(=O)c3ccccc23)ccc1F)B1O[C@@H]2C[C@@H]3C[C@@H](C3(C)C)[C@]2(C)O1,216
2,CC(C)C[C@H](NC(=O)[C@@H](NC(=O)c1cc(Cc2n[nH]c(=O)c3ccccc23)ccc1F)C(C)(C)C)B1O[C@@H]2C[C@@H]3C[C@@H](C3(C)C)[C@]2(C)O1,12.3
3,COC[C@H](NC(=O)c1cc(Cc2n[nH]c(=O)c3ccccc23)ccc1F)C(=O)N[C@@H](CC(C)C)B1O[C@@H]2C[C@@H]3C[C@@H](C3(C)C)[C@]2(C)O1,109
4,CC(C)C[C@H](NC(=O)CNC(=O)c1cc(Cc2n[nH]c(=O)c3ccccc23)ccc1F)B1O[C@@H]2C[C@@H]3C[C@@H](C3(C)C)[C@]2(C)O1,97.7
5,CC(C)C[C@H](NC(=O)[C@H](Cc1ccc(O)cc1)NC(=O)c1cc(Cc2n[nH]c(=O)c3ccccc23)ccc1F)B1O[C@@H]2C[C@@H]3C[C@@H](C3(C)C)[C@]2(C)O1,348
6,CCC[C@H](NC(=O)c1cc(Cc2n[nH]c(=O)c3ccccc23)ccc1F)C(=O)N[C@@H](CC(C)C)B1O[C@@H]2C[C@@H]3C[C@@H](C3(C)C)[C@]2(C)O1,605

# System: MCF7
# Experiment: Cytotoxicity against human MCF7 cells assessed as inhibition of cell growth incubated for 72 hrs by MTT assay
# Format: functional, cell-based
# Conditions: MCF7, 72 h
row,SMILES,IC50 [nM]
1,CC(C)C[C@H](NC(=O)[C@H](Cc1c[nH]c2ccccc12)NC(=O)c1cc(Cc2n[nH]c(=O)c3ccccc23)ccc1F)B1O[C@@H]2C[C@@H]3C[C@@H](C3(C)C)[C@]2(C)O1,45.1
2,CC(C)C[C@H](NC(=O)[C@@H](NC(=O)c1cc(Cc2n[nH]c(=O)c3ccccc23)ccc1F)C(C)(C)C)B1O[C@@H]2C[C@@H]3C[C@@H](C3(C)C)[C@]2(C)O1,130
3,COC[C@H](NC(=O)c1cc(Cc2n[nH]c(=O)c3ccccc23)ccc1F)C(=O)N[C@@H](CC(C)C)B1O[C@@H]2C[C@@H]3C[C@@H](C3(C)C)[C@]2(C)O1,40.8
4,CC(C)C[C@H](NC(=O)CNC(=O)c1cc(Cc2n[nH]c(=O)c3ccccc23)ccc1F)B1O[C@@H]2C[C@@H]3C[C@@H](C3(C)C)[C@]2(C)O1,355
5,CC(C)C[C@H](NC(=O)[C@H](Cc1ccc(O)cc1)NC(=O)c1cc(Cc2n[nH]c(=O)c3ccccc23)ccc1F)B1O[C@@H]2C[C@@H]3C[C@@H](C3(C)C)[C@]2(C)O1,980
6,CCC[C@H](NC(=O)c1cc(Cc2n[nH]c(=O)c3ccccc23)ccc1F)C(=O)N[C@@H](CC(C)C)B1O[C@@H]2C[C@@H]3C[C@@H](C3(C)C)[C@]2(C)O1,87.9

# System: MDA-MB-231
# Experiment: Cytotoxicity against human MDA-MB-231 cells assessed as inhibition of cell growth incubated for 72 hrs by MTT assay
# Format: functional, cell-based
# Conditions: MDA-MB-231, 72 h
row,SMILES,IC50 [nM]
1,CC(C)C[C@H](NC(=O)[C@H](Cc1c[nH]c2ccccc12)NC(=O)c1cc(Cc2n[nH]c(=O)c3ccccc23)ccc1F)B1O[C@@H]2C[C@@H]3C[C@@H](C3(C)C)[C@]2(C)O1,297
2,CC(C)C[C@H](NC(=O)[C@@H](NC(=O)c1cc(Cc2n[nH]c(=O)c3ccccc23)ccc1F)C(C)(C)C)B1O[C@@H]2C[C@@H]3C[C@@H](C3(C)C)[C@]2(C)O1,28.1
3,COC[C@H](NC(=O)c1cc(Cc2n[nH]c(=O)c3ccccc23)ccc1F)C(=O)N[C@@H](CC(C)C)B1O[C@@H]2C[C@@H]3C[C@@H](C3(C)C)[C@]2(C)O1,101
4,CC(C)C[C@H](NC(=O)CNC(=O)c1cc(Cc2n[nH]c(=O)c3ccccc23)ccc1F)B1O[C@@H]2C[C@@H]3C[C@@H](C3(C)C)[C@]2(C)O1,249
5,CC(C)C[C@H](NC(=O)[C@H](Cc1ccc(O)cc1)NC(=O)c1cc(Cc2n[nH]c(=O)c3ccccc23)ccc1F)B1O[C@@H]2C[C@@H]3C[C@@H](C3(C)C)[C@]2(C)O1,328
6,CCC[C@H](NC(=O)c1cc(Cc2n[nH]c(=O)c3ccccc23)ccc1F)C(=O)N[C@@H](CC(C)C)B1O[C@@H]2C[C@@H]3C[C@@H](C3(C)C)[C@]2(C)O1,338
